According to ChEMBL document CHEMBL1158694, “Terphenylquinone inhibitors of the src protein tyrosine kinase from Stilbella sp” (J Nat Prod, 2005):

Target: Proto-oncogene tyrosine-protein kinase Src (Homo sapiens, UniProt P12931)
Assay: Inhibition of His-tagged human src kinase expressed in Sf9 cells by DELFIA assay

Sequence of Proto-oncogene tyrosine-protein kinase Src (P12931 2-536 limits assumed): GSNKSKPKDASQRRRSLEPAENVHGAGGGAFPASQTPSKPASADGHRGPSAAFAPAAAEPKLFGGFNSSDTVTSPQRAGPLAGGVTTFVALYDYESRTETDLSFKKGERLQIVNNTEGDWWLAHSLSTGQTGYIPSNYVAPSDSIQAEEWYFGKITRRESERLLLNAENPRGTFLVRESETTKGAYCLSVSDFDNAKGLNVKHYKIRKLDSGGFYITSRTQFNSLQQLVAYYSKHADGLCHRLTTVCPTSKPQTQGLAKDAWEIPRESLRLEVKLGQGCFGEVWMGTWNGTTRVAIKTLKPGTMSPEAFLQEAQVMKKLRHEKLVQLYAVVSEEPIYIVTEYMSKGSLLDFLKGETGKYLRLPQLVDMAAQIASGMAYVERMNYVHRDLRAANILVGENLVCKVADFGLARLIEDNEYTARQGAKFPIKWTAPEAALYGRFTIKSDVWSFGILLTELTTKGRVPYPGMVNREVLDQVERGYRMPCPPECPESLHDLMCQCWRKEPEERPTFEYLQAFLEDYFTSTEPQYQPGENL

IC50 [µM]	SMILES
23.6	O=C1C(c2ccccc2)=C(O)C(=O)c2c1oc1cc(O)c(O)cc21
3.9	O=C1C(O)=C(c2cc(O)c(O)c(O)c2)C(=O)C(O)=C1c1ccccc1
37.5	O=C1C(O)=C(c2ccc(O)cc2)C(=O)C(O)=C1c1ccccc1
14.5	O=C1C(O)=C(c2ccc(O)c(O)c2)C(=O)C(O)=C1c1ccccc1

SMILES	IC50 [µM]
O=C1C(O)=C(c2ccccc2)C(=O)C(O)=C1c1ccccc1	> 50
